Laboratory results reported in patent US9757369B2, “Heterocyclic GSK-3 allosteric modulators” (Consejo Superior de Investigaciones Cientificas (CSIC), priority 2011, dated 2017).
“Also recorded” adds a separate entry of the source.

Legend:
[1] = molecular target: recombinant human GSK3 enzyme (GSK-3β) (Homo sapiens, UniProt P49841); test: Measurement of the inhibition of GSK-3β (Kinase-Glo luminometric assay); assay type: biochemical; settings: 25 μM substrate, 1 μM ATP, 30 min at 30 °C
Experimental: The enzyme inhibition assays were performed using the luminometric methodology of Kinase-Glo®. […] The luminescent kinase kit (catalogue no. V6711) was obtained from Promega. The ATP and the other reagents were purchased from Sigma-Aldrich (St. Louis, Mo.).
The assays were performed in buffer using 96-well plates. 10 µl of the compound to be assayed (dissolved in DMSO at a concentration of 1 mM, and, in turn, dissolved in buffer to the concentration necessary for the experiment) and 10 µl (20 ng) of the enzyme are added to each well, followed by 20 µl of buffer containing 25 µM of the substrate and 1 µM of ATP. […] Following a half-hour incubation at 30° C., the enzymatic reaction is stopped with 40 µl of the Kinase-Glo® reagent. The luminescence is measured after ten minutes, using a POLARstar Optima multimode reader. The activity is proportional to the difference between the total ATP and the ATP consumed. The inhibitory activities were calculated as a function of the maximum activity, measured in the absence of inhibitor.

RAW 264.7 cells = test: Anti-inflammatory activity: nitrite production (Griess method) in LPS-stimulated RAW 264.7 cells; assay type: cell-based; settings: 1.25, 2.5, 5 and 10 μM; 1 h pre-treatment, 0.4 μg/ml LPS 24 h
Experimental: A monolayer culture of RAW 264.7 cells growing in 96-well plates is used. The cells are treated for 1 h with the compounds evaluated. Subsequently, the inflammatory activity is stimulated with 0.4 µg/ml of LPS for 24 h. Once this time has elapsed, the production of nitrites is evaluated by means of the Griess method. Briefly, 50 µl of supernatant are transferred to 96-well plates and 50 µl of Griess reagent are added. The mixture is incubated for 15 minutes at room temperature and the absorbance at 520 nm is measured in a microplate reader.

GSK-3β [2] = molecular target: GSK-3β (Homo sapiens, UniProt P49841); test: Kinetic study varying ATP concentration (ADP-Glo Kinase Assay, double-reciprocal plot); assay type: biochemical; settings: ATP 1 to 50 μM, GS-2 12.5 μM, inhibitor 5 to 10 μM
Experimental: The ATP concentrations were varied from 1 to 50 µM, whereas the concentration of the GS-2 peptide was kept constant at 12.5 µM. The concentrations of inhibitor (compound 6) used are shown in the plot.
The kinetic studies conducted by varying the ATP concentration from 1 to 50 µM, and the concentration of inhibitor 6 from 5 to 10 µM, were performed using the ADP-Glo™ Kinase Assay.

GSK-3β [3] = test: Study of the inhibition of GSK-3β as a function of enzyme-inhibitor pre-incubation time; assay type: biochemical, human; settings: different enzyme incubation times, two inhibitor concentrations
Experimental: In order to determine the binding mode of these compounds, different kinetic studies were performed, varying the reaction times and the ATP concentration and the substrate concentration.

GSK-3β [4] = test: Kinetic study varying GS-2 peptide substrate concentration (double-reciprocal plot); assay type: biochemical, human; settings: GS-2 15.5 to 100 μM, ATP 1 μM, inhibitor 5 to 10 μM
Experimental: The GS-2 concentrations were varied from 15.5 to 100 µM, whereas the ATP concentration was kept constant at 1 µM. The concentrations of inhibitor (compound 6) used are shown in the plot.
On the other hand, we also studied the dependence of GSK-3β activity in the presence of these inhibitors as a function of the concentration of the substrate, the GS-2 peptide, used in the assays.

| SMILES | IC50 [1] [µM] | also measured |
| --- | --- | --- |
| CCCCCCCCCCCC(=O)NNC(=O)c1c(O)c2ccccc2n(C)c1=O [Compound 4, N′-Dodecanoyl-4-hydroxy-1-methyl-2-oxo-1.2-dihydroquinoline-3-carbohydrazide] | 7.35 ± 0.23 | – |
| CCCCCCCC(=O)NNC(=O)c1c(O)c2cc(Cl)ccc2n(C)c1=O [Compound 53, 6-Chloro-4-hydroxy-1-methyl-N′-octanoyl-2-oxo-1,2-dihydroquinoline-3-carbohydrazide] | 8.48 ± 0.3 | – |
| CCCCCCCC(=O)NNC(=O)c1c(O)c2cc(Cl)ccc2n(CC)c1=O [Compound 55, 6-Chloro-1-ethyl-4-hydroxy-N′-octanoyl-2-oxo-1,2-dihydroquinoline-3-carbohydrazide] | 9.42 ± 0.23 | – |
| CCCCCCCCCCCC(=O)NNC(=O)c1c(O)c2cc(Cl)ccc2n(CC)c1=O [Compound 56, 6-Chloro-N′-dodecanoyl-1-ethyl-4-hydroxy-2-oxo-1,2-dihydroquinoline-3-carbohydrazide] | 3.18 ± 0.28 | – |
| CCCCCCCCCCCC(=O)NNC(=O)c1c(O)c2ccccc2n(Cc2ccccc2)c1=O [Compound 46, 1-Benzyl-N′-dodecanoyl-4-hydroxy-2-oxo-1,2-dihydroquinoline-3-carbohydrazide] | 5.51 ± 0.27 | – |
| CCCCCCCC(=O)NNC(=O)c1c(O)c2ccc(Cl)cc2n(CC)c1=O [Compound 59, 7-Chloro-1-ethyl-4-hydroxy-N′-octanoyl-2-oxo-1,2-dihydroquinoline-3-carbohydrazide] | 4.83 ± 0.23 | – |
| CCCCCCCC(=O)NNC(=O)c1c(O)c2ccccc2n(C)c1=O [Compound 3, 4-Hydroxy-1-methyl-N′-octanoyl-2-oxo-1,2-dihydroquinoline-3-carbohydrazide] | 8.67 ± 0.4 | – |
| CCCCCCCCCCCC(=O)NNC(=O)c1c(O)c2ccc(Cl)cc2n(C)c1=O [Compound 58, 7-Chloro-N′-dodecanoyl-4-hydroxy-1-methyl-2-oxo-1,2-dihydroquinoline-3-carbohydrazide] | 4.03 ± 0.19 | – |
| CCCCCCCCCCCC(=O)N(Cc1ccccc1)NC(=O)c1c(O)c2ccccc2n(Cc2ccccc2)c1=O [Compound 63, N′-1-dibenzyl-N′-dodecanoyl-4-hydroxy-2-oxo-1,2-dihydroquinoline-3-carbohydrazide] | 6.84 ± 0.51 | – |
| CCCCCCCCCCCC(=O)NNC(=O)c1c(O)c2cc(Br)ccc2n(C)c1=O [Compound 50, 6-Bromo-N′-dodecanoyl-4-hydroxy-1-methyl-2-oxo-1,2-dihydroquinoline-3-carbohydrazide] | 4.28 ± 0.5 | – |
| CCCCCCCCCCCC(=O)NNC(=O)c1c(O)c2ccc(Cl)cc2n(Cc2ccccc2)c1=O [Compound 62, 1-Benzyl-7-chloro-N′-dodecanoyl-4-hydroxy-2-oxo-1,2-dihydroquinoline-3-carbohydrazide] | 5.99 ± 0.22 | – |
| CCCCCCCCCCCC(=O)NNC(=O)c1c(O)c2cc(Cl)ccc2n(C)c1=O [Compound 54, 6-Chloro-N′-dodecanoyl-4-hydroxy-1-methyl-2-oxo-1,2-dihydroquinoline-3-carbohydrazide] | 5.95 ± 0.49 | – |
| CCCCCCCCCCCC(=O)NNC(=O)c1c(O)c2ccccc2n(CC2CC2)c1=O [Compound 45, 1-(cyclopropylmethyl)-N′-dodecanoyl-4-hydroxy-2-oxo-1,2-dihydroquinoline-3-carbohydrazide] | 5.25 ± 0.58 | – |
| CCCCCCCC(=O)NNC(=O)c1c(O)c2ccc(Cl)cc2n(Cc2ccccc2)c1=O [Compound 61, 1-Benzyl-7-chloro-4-hydroxy-N′-octanoyl-2-oxo-1,2-di hydroquinoline-3-carbohydrazide] | 5.96 ± 0.17 | – |
| CCCCCCCC(=O)NNC(=O)c1c(O)c2ccc(Cl)cc2n(C)c1=O [Compound 57, 7-Chloro-4-hydroxy-1-methyl-N′-octanoyl-2-oxo-1,2-dihydroquinoline-3-carbohydrazide] | 6.66 ± 0.29 | – |
| CCCCCCCCCCCC(=O)NNC(=O)c1c(O)c2cc(Br)ccc2n(CC)c1=O [Compound 52, 6-Bromo-N′-dodecanoyl-1-ethyl-4-hydroxy-2-oxo-1,2-dihydroquinoline-3-carbohydrazide] | 2.01 ± 0.18 | – |
| CCCCCCCCCCCC(=O)NNC(=O)c1c(O)c2ccc(Cl)cc2n(CC)c1=O [Compound 60, 7-Chloro-N′-dodecanoyl-1-ethyl-4-hydroxy-2-oxo-1,2-dihydroquinoline-3-carbohydrazide] | 2.48 ± 0.26 | – |
| CCCCCCCCCCCC(=O)NNC(=O)c1c(O)c2ccccc2n(CC)c1=O [Compound 6, N′-Dodecanoyl-1-ethyl-4-hydroxy-2-oxo-1,2-dihydroquinoline-3-carbohydrazide] | 2.85 ± 0.36 | decrease in nitrite release (RAW 264.7 cells): dose-dependent effect on the decrease in nitrite release; also recorded: decrease in inflammatory activity; mode of inhibition versus ATP (GSK-3β [2]): non-ATP-competitive inhibitor; reversibility of enzyme inhibition (GSK-3β [3]): reversible inhibitor; mode of inhibition versus substrate GS-2 (GSK-3β [4]): substrate-non-competitive inhibitor |
| CCCCCCCC(=O)NNC(=O)c1c(O)c2cc(Br)ccc2n(CC)c1=O [Compound 51, 6-Bromo-1-ethyl-4-hydroxy-N′-octanoyl-2-oxo-1,2-dihydroquinoline-3-carbohydrazide] | 7.34 ± 0.2 | – |
| CCCCCCCC(=O)NNC(=O)c1c(O)c2cc(Br)ccc2n(C)c1=O [Compound 49, 6-Bromo-4-hydroxy-1-methyl-N′-octanoyl-2-oxo-1,2-dihydroquinoline-3-carbohydrazide] | 6.28 ± 0.33 | – |
